# Patent US20220175728A1, “PHARMACEUTICAL USE OF CHLOROPHYLLIDE FOR ANTI-VIRAL INFECTION” (I-SHOU UNIVERSITY, priority 2020, published 2022)
# Tests used:
# Format in all cases: cell-based
# [1] = test system: chikungunya virus; assay: Chikungunya micro-neutralization test; details: Vero cells, MOI 0.001, 3 days
# Method: (§1) African green monkey kidney Vero cells were infected with chikungunya virus at an MOI of 0.001 in the presence of chlorophyllide at indicated dosages, and then incubated for 3 days, followed by the micro-neutralization test.
# [2] = test system: African green monkey kidney Vero cells; assay: Cytotoxicity, control group of Zika micro-neutralization test; details: 4 to 5 days
# Method: (§2) African green monkey kidney Vero cells were infected with Zika virus at an MOI of 0.1 in the presence of chlorophyllide at indicated dosages, and then incubated for 4 to 5 days, followed by the micro-neutralization test.
# [3] = test system: African green monkey kidney Vero cells; assay: Cytotoxicity, control group of chikungunya micro-neutralization test; details: 3 days
# Method: as §1
# [4] = test system: Zika virus; assay: Zika micro-neutralization test; details: Vero cells, MOI 0.1, 4 to 5 days
# Method: as §2
substance,measurement,setting,value
chlorophyllide,EC50 for antiviral activity against chikungunya,[1],18.75 µg/mL
same,cytotoxicity dose,[2],greater than 100 μg/mL
same,cytotoxicity dose,[3],greater than 100 μg/mL
same,EC50 for antiviral activity against Zika,[4],12.5 µg/mL
